Measurements: paper PMC3960879 (Biology, 2013)

Columns and labels:
Settings in all cases: CFG glycan array version 2; F17G at 200 µg/mL; SEM in parentheses
[1] = target: F17aG lectin domain (Escherichia coli, UniProt Q99003)
Method: (§1) A microarray presenting 264 different glycans (mammalian printed array version 2) was used to evaluate if the F17G variant lectin domains differ in the range of glycan receptors that they recognize, thereby establishing tropism. The microarray was set up within the Consortium for Functional Glycomics (CFG) ([20], and supplemental data). Binding of F17G (200 µg/mL) was detected using anti-F17G polyclonal rabbit IgG (10 µg/mL), followed by fluorescently labelled goat anti-rabbit polyclonal antibodies (IgG-488, 5 µg/mL).
(§2) A microarray presenting 264 different glycans (mammalian printed array version 2 from the CFG, experiment 400) was used to evaluate whether the F17G variant lectin domains differ in the range of glycan receptors that they can recognize, thereby establishing strain-dependent tropism. […] The glycan array screening has been repeated for F17aG only on printed array version 4.1 (experiment 2053) (Figure 1).
(§3) Printed array version 2 at the Consortium for Functional Glycomics was used for glycan array screening of the variant F17G receptor binding domains. Slides were printed, with six replicates for each glycan, using glycan spotting concentrations of 100 μM, at the Consortium Carbohydrate Synthesis/Protein Expression Core D located at the Scripps Research Institute onto Schott Nexterion H slides (Schott Cat. No. 1070936B). Slide conditioning: preprinted slides were soaked in deionized water for 5 minutes at room temperature and dried under a stream of nitrogen. TSM buffer (20 mM Tris-HCl, pH 7.4, or MOPS 20 mM; 150 mM NaCl; 2 mM CaCl2, 2 mM MgCl2) was used as wash buffer (TSM buffer + 0.05% Tween 20) or binding buffer (TSM buffer + 0.05% Tween 20 + 1% BSA). (1) F17G was diluted to 200 μg/mL (Figure 1) in TSM binding buffer. (2) 50 μL of F17G was applied to the printed surface and coverslipped. (3) The slide was incubated, protected from light, in a humidified chamber for 1 hour at RT. (4) The slide was washed once in TSM wash buffer. 50 μL of the anti-F17G (10 μg/mL) polyclonal rabbit IgG were applied, coverslipped and incubated for 1 h at RT. (5) The slide was washed once in TSM wash buffer. Fifty μL of fluorescently labelled secondary goat anti-rabbit polyclonal antibodies (IgG-488, 5 µg/mL) were applied, coverslipped and incubated for 1 h at RT. (6) Slide was removed, followed by the coverslip, and washed for 10 s each in TSM wash buffer, TSM wash buffer lacking Tween 20, and deionized water. The slide was dried under a stream of nitrogen. (7) The binding image was read in a Perkin Elmer Microscanarray XL4000 scanner and tiff file of image stored. (8) Image analysis was performed using Imagene (V.6) image analysis software. (9) Raw data results files were generated in Excel format and uploaded to the Consortium database as .dat files. (10) Imagene data was uploaded to the database as .txt files.

[2] = target: F17bG lectin domain (Escherichia coli, UniProt Q47200)
Method: as §1, §2, §3

[3] = target: F17dG lectin domain (Escherichia coli, UniProt Q47199)
Method: as §1, §2, §3

[4] = system: F17eG lectin domain; assay: CFG mammalian printed glycan array version 2 (experiment 400), F17eG; type: binding, Escherichia coli
Source text: (§4) The slide was dried under a stream of nitrogen.

[5] = system: F17fG lectin domain; assay: CFG mammalian printed glycan array version 2 (experiment 400), F17fG; type: binding, Escherichia coli
Source text: as §4

F17aG lectin domain, sequence (Q99003 23-199): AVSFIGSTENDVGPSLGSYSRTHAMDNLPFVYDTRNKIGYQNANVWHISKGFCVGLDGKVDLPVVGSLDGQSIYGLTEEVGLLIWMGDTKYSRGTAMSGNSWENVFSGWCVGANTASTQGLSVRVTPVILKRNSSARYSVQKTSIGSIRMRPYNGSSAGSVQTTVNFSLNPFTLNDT
F17bG lectin domain, sequence (Q47200 23-199): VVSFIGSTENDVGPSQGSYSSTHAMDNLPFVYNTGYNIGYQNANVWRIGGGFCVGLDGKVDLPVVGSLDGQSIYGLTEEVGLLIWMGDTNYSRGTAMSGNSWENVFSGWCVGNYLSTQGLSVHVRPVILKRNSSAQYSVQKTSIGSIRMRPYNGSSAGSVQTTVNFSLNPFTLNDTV
F17dG lectin domain, sequence (Q47199 23-199): as the sequence (Q99003 23-199) above, with L16P, D33N, R35G, K37N, H47R, K90N counted along it

Compound	Relative Fluorescence Units (RFU), averaged over six replicates, F17aG [1]	Relative Fluorescence Units (RFU), averaged over six replicates, F17bG [2]	Relative Fluorescence Units (RFU), averaged over six replicates, F17dG [3]	Relative Fluorescence Units (RFU), averaged over six replicates, F17eG [4]	Relative Fluorescence Units (RFU), averaged over six replicates, F17fG [5]
CC(=O)N[C@H]1[C@H](O[C@H]2[C@@H](O)[C@@H](CO)O[C@@H](OCCCN)[C@@H]2O)O[C@H](CO)[C@@H](O)[C@@H]1O [GlcNAcβ1,3Galβ-Sp8]	32,288 (4,175) RFU	16,310 (1,907) RFU	16,277 (9,959) RFU	38,836 (5,631) RFU	27,648 (1,137) RFU
CC(=O)N[C@H]1[C@H](OCCCN)O[C@H](CO)[C@@H](O[C@@H]2O[C@H](CO)[C@@H](O[C@@H]3O[C@H](CO)[C@@H](O)[C@H](O)[C@H]3NC(C)=O)[C@H](O)[C@H]2NC(C)=O)[C@@H]1O [GlcNAcβ1,4GlcNAcβ1,4GlcNAcβ-Sp8]	848 (88) RFU	2,860 (706) RFU	1,690 (251) RFU	5,689 (1,085) RFU	2,418 (613) RFU
GlcNAcβ1,4Galβ1,4GlcNAcβ-Sp8	12,499 (1,921) RFU	13,001 (2,039) RFU	1,056 (190) RFU	39,794 (6,245) RFU	7,176 (2,338) RFU
CC(=O)N[C@H]1[C@H](OCCCN)O[C@H](CO)[C@@H](O[C@@H]2O[C@H](CO[C@@H]3O[C@H](CO)[C@@H](O)[C@H](O)[C@H]3NC(C)=O)[C@H](O)[C@H](O[C@@H]3O[C@H](CO)[C@@H](O)[C@H](O)[C@H]3NC(C)=O)[C@H]2O)[C@@H]1O [GlcNAcβ1,3(GlcNAcβ1,6)Galβ1,4GlcNAcβ-Sp8]	44,391 (3,949) RFU	21,630 (2,490) RFU	17,195 (3,442) RFU	41,907 (4,694) RFU	37,083 (5,973) RFU
Galβ1,4GlcNAcβ1,3Galβ1,4Glcβ-Sp0	391 (24) RFU	1,090 (262) RFU	919 (375) RFU	3,942 (857) RFU	663 (146) RFU
(GlcNAcβ1,3(GlcNAcβ1,6)GlcNAcβ1,4)GlcNAc-Sp8	20,305 (2,023) RFU	6,148 (1,367) RFU	8,080 (1,518) RFU	50,775 (6,375) RFU	2,992 (992) RFU
GlcNAcβ1,6GalNAcα-Sp8	11,120 (1,871) RFU	6,683 (947) RFU	2,432 (406) RFU	43,848 (4,140) RFU	26,522 (11,365) RFU
Neu5Acα2,3(Neu5Acα2,6)GalNAcα-Sp8	4,527 (4,043) RFU	4,331 (1,760) RFU	1,388 (1,162) RFU	1,229 (1,162) RFU	1,717 (229) RFU
CC(=O)N[C@H]1[C@H](OCCN)O[C@H](CO)[C@@H](O)[C@@H]1O [GlcNAcβ-Sp0]	15,621 (2,697) RFU	14,972 (2,705) RFU	3,377 (643) RFU	34,825 (6,475) RFU	5,354 (1,572) RFU
GlcNAcβ1,6Galβ1,4GlcNAcβ-Sp8	9,029 (1,096) RFU	5,372 (746) RFU	5,119 (1,633) RFU	40,973 (6,555) RFU	2,269 (561) RFU
CC(=O)N[C@H]1[C@H](OC[C@H]2O[C@H](OCCCN)[C@H](NC(C)=O)[C@@H](O[C@@H]3O[C@H](CO)[C@H](O)[C@H](O)[C@H]3O)[C@H]2O)O[C@H](CO)[C@@H](O)[C@@H]1O [Galβ1,3(GlcNAcβ1,6)GalNAcα-Sp8]	10,256 (1,410) RFU	6,215 (1,046) RFU	3,850 (364) RFU	50,893 (5,540) RFU	3,195 (811) RFU
GlcNAcβ1,3Galβ1,4GlcNAcβ1,3Galβ1,4GlcNAcβ-Sp0	10,917 (811) RFU	7,563 (2,744) RFU	3,599 (772) RFU	43,425 (4,065) RFU	4,334 (856) RFU
NCCCO[C@@H]1O[C@H](CO)[C@@H](O)[C@H](O)[C@H]1N [GlcNH2β-Sp8]	554 (117) RFU	7,281 (1,506) RFU	1,950 (1,358) RFU	548 (256) RFU	1,385 (464) RFU
